Tests used:
[1] = biological target: Apoptosis regulator Bcl-2 (Homo sapiens, UniProt P10415); assay: Displacement of Flu-Bid from human recombinant Bcl2 receptor
[2] = biological target: Bcl-2-like protein 1 (Homo sapiens, UniProt Q07817); assay: Displacement of Flu-Bid from human recombinant Bcl-xL receptor
Chain of Bcl-2-like protein 1 (Q07817 whole entry): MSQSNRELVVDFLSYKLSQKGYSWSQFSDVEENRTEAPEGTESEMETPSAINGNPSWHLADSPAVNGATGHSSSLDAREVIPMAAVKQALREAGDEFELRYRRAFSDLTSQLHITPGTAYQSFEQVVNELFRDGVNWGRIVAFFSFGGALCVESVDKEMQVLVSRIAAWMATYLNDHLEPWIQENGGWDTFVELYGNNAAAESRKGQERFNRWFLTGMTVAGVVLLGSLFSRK

Chain of Apoptosis regulator Bcl-2 (P10415 whole entry): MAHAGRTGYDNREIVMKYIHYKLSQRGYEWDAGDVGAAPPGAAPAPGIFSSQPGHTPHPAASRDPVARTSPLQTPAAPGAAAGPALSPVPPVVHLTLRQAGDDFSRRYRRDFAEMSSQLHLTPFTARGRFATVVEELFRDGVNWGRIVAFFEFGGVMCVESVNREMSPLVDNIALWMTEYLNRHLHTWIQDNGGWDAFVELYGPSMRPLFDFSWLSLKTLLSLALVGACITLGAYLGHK

Compound: CC(C)(C)C[C@H]1N[C@@H](C(=O)NCCN2CCOCC2)[C@H](c2cccc(Cl)c2F)[C@@]12C(=O)Nc1cc(Cl)ccc12
- IC50 [1]: > 50 µM
- IC50 [2]: > 50 µM

Source: ChEMBL document CHEMBL1148527, “Structure-based design of spiro-oxindoles as potent, specific small-molecule inhibitors of the MDM2-p53 interaction” (J Med Chem, 2006)
